In patent publication US20210179853A1, “DRUG THAT REACTS WITH ACROLEIN, USE THEREOF AND NOVEL COMPOUND” (RIKEN, priority 2018, published 2021):

Columns and labels:
[1] = test system: acrolein that is generated from a cell; assay: Sensitivity comparison with conventional detection reagent: staining of normal and cancer cells; format: cell-based, human; conditions: for acrolein concentration level that can be detected: acrolein generated from a cell, suggested from FIG. 3 staining; for identification of localization and morphology of a cancer cell: at a low reagent concentration (0.25-1.5 μM, 5 minutes)
Experimental: Respective detection sensitivities of a detection reagent (TAMRA-PhN3) represented by Formula below and the compound 7 (TAMRA-di-iPr-PhN3) prepared in Example 1 were compared. Cells illustrated in FIG. 3 (for description of cell strains, see also Reference Example 1) were each immersed in an aqueous solution, containing the detection reagent at a concentration of 0.25 μM, 0.75 μM, or 1.5 μM, for 5 minutes so as to be stained.

acrolein = assay: Selective detection of acrolein: fluorescence staining of 11 normal and cancer cell lines; format: cell-based, human; conditions: 2.5-22.5 μM, 30 minutes at room temperature, with a higher concentration; FIG. 1
Experimental: The following 11 cell lines were seeded in 96 wells (4×10^4 cells/well) and left to stand for 24 hours before treatment so that the cell lines were adhered to the wells.
Normal cell: normal human diploid fibroblast (TIG3), normal human umbilical vein endothelial cell (HUVEC), normal human mammary gland cell (MCF10A)
Cancer cell: SKBR3 (human breast cancer cell), MDA-MB-231 (human breast cancer cell), BxPC3 (human pancreatic cancer cell), HT29 (human colonic cancer cell), MCF7 (human breast cancer cell), A549 (human lung cancer cell), HeLaS3 (human cervical cancer cell), PC3 (human prostatic cancer cell)
The cells were treated by adding, to media, 100 μL of TAMRA-PhN3 solutions (2.5 μM, 7.5 μM, 12.5 μM, 17.5 μM, 22.5 μM) described in Non-patent Literature 1 and Example 2. Then, the cells were incubated at room temperature for 30 minutes. The cells were fixed by paraformaldehyde, and fluorescence was recorded with use of Spectra Max M2e (Molecular Devices, LLC.).
In FIG. 1, the vertical axis represents a relative fluorescence intensity (arbitrary unit), and the horizontal axis represents a result of staining (fluorescence) of each normal or cancer cell.

[2] = test system: invasive ductal carcinoma-positive, ductal carcinoma in situ-positive and cancer-negative tissue; assay: Staining of cancer tissue in a living tissue state; format: cell-based; conditions: 5, 10, 20 μM, 5 minutes at room temperature; FIG. 2
Experimental: An invasive ductal carcinoma-positive tissue (IDC-positive), a ductal carcinoma in situ-positive tissue (DCIS-positive), and a cancer-negative tissue (Cancer-negative) were each immersed in a TAMRA-PhN3 solution (5 μM, 10 μM, 20 μM). These tissues were incubated at room temperature for 5 minutes. The tissues were each stained in a living tissue state. […] Note that cell nuclei are stained with DAPI.
In FIG. 2, “Eyesight” indicates a photograph of each tissue that has been stained, and “Microscopy (×1)”, “Microscopy (×200)”, and “Microscopy (×400)” each indicate results of observations carried out with use of microscopes having respective magnifications of 1 time, 200 times, and 400 times.

Row | Compound | acrolein concentration level that can be detected [1] | identification of localization and morphology of a cancer cell [1] | detection sensitivity relative to TAMRA-PhN3 ([1]; cells immersed in aqueous solution of reagent at 0.25, 0.75 or 1.5 μM for 5 minutes, FIG. 3) | reaction product with acrolein (relative fluorescence intensity) (acrolein) | observation of localization and morphology of a cancer cell in a living tissue [2]
1 | CC(C)c1cc(CNC(=O)c2ccc(-c3c4ccc(=[N+](C)C)cc-4oc4cc(N(C)C)ccc34)c(C(=O)[O-])c2)cc(C(C)C)c1N=[N+]=[N-] [compound 7, 5-carboxymethylrhodamine-diisopropylphenylazide] | pM level | possible to identify localization and morphology of a cancer cell | not less than 100 times |  | 
2 | CN(C)c1ccc2c(-c3ccc(C(=O)NCc4ccc(N=[N+]=[N-])cc4)cc3C(=O)[O-])c3ccc(=[N+](C)C)cc-3oc2c1 [TAMRA-PhN3] | nM-level | cannot be identified |  | increase in reaction product (fluorescence intensity) | possible to observe localization and morphology of a cancer cell in detail in a living tissue
